# In patent publication US20260125374A1, “PI3K-ALPHA INHIBITORS AND METHODS OF MAKING AND USING THE SAME” (Relay Therapeutics, Inc., priority 2021, published 2026):
# Assays:
# Assay type in all cases: physicochemical
# [1] = Bulk stability (1 week); details: listed as I-4 Form A; for Bulk (HPLC) chiral purity / Bulk (HPLC) purity / Bulk (XRPD): Solid state
# Experimental: Bulk stability of I-1 Form A and the 2 salt candidates was investigated at 25° C./92% RH in an open container, at 40° C./75% RH in an open container and at 60° C. in a tight container over 1 week. […] All the 3 salts show no obvious racemization based on chiral purity results.
# I-1 Form A and the 2 salts were placed at 25° C./92% RH in an open container, at 40° C./75% RH in an open container and at 60° C. in a closed container for I week. Samples after I week were characterized by XRPD and HPLC and inspected for color change.
# [2] = Solubility study at 37° C. (buffer, water, bio-relevant media, MeOH/DCM); details: listed as I-4 Form A
# Experimental: In addition, residual solids were checked by chiral HPLC to confirm whether racemization occurs.
# Accurate 4 mg of I-1 Form A, 5.13 mg of I-3 Form A, 4.63 mg of I-4 Form A was weighed into a 8 mL glass vial, respectively. 2 mL of solubility medium was added. The salt amount used is equivalent to 4 mg anhydrous free form. Obtained suspensions/solutions were stirred at 37° C. at 400 rpm for 2 hours and 24 hours and then centrifuged at 37° C. at 14,000 rpm for 5 min. Supernatants were analyzed by UPLC and PH meter for solubility and pH value, respectively. Residual solids (wet cakes) were characterized by XRPD to determine physical form and then analyzed by HPLC for chiral purity.
# [3] = Hygroscopicity by DVS
# Experimental: • Method 1 (for I-1 Form A and I-3 Form A) • Instrument Intrinsic, Advantage or Adventure • Total gas flow 200 sccm • Oven temperature 25° C. • Solvent Water • Method Cycle: 40-0-95-0-40% RH • Stage Step: 10% • Equilibrium: 0.002 dm/dt (%/min) • Minimum dm/dt stability duration: 60 min • Maximum dm/dt stage time: 360 min • Method 2 (for I-4 Form A) • Instrument Intrinsic, Advantage or Adventure • Total gas flow 200 sccm • Oven temperature 25° C. • Solvent Water • Method Cycle: 40-95-0-95-40% RH • Stage Step: 10% • Equilibrium: 0.002 dm/dt (%/min) • Minimum dm/dt stability duration: 60 min • Maximum dm/dt stage time: 360 min
# I-1 Form A is hygroscopic. It absorbs about 5.5% water by weight from 40% RH to 95% RH. […] It absorbs about 40% water by weight from 40% RH to 95% RH. Form changed after the DVS test. […] It starts to absorb water when RH>40% and potential hydrate form generates at high humidity based on DVS data. The sorption and desorption are reversible.
# Water sorption and desorption behavior of I-1 Form A, I-3 Form A, and I-4 Form A was investigated by DVS at 25° C. with a cycle of 40-0-95-0-40% RH, dm/dt 0.002, min. equilibration time 60 min and max. equilibration time 360 min. XRPD was measured after the DVS test to determine form change.
# [4] = 25° C./92% RH, open container, 1 week
# [5] = 40° C./75% RH, open container, 1 week
# [6] = 60° C., tight container, 1 week
# [7] = DVS 25° C., 0% RH, listed as I-4 Form A
# [8] = DVS 25° C., 10% RH, listed as I-4 Form A
# [9] = DVS 25° C., 20% RH, listed as I-4 Form A
# [10] = DVS 25° C., 30% RH, listed as I-4 Form A
# [11] = DVS 25° C., 40% RH, listed as I-4 Form A
# [12] = DVS 25° C., 50% RH, listed as I-4 Form A
# [13] = DVS 25° C., 60% RH, listed as I-4 Form A
# [14] = DVS 25° C., 70% RH, listed as I-4 Form A
# [15] = DVS 25° C., 80% RH, listed as I-4 Form A
# [16] = DVS 25° C., 90% RH, listed as I-4 Form A
# [17] = DVS 25° C., 95% RH, listed as I-4 Form A
structure (smiles),measurement,setting,value
N#Cc1c(-c2cc(NC(=O)c3cc(F)cc(C(F)(F)F)c3)c3c(c2)C(=O)N[C@H]3c2cc(F)ccc2Cl)ccc2ncnn12 [Compound I-4],bulk stability (chemical and physical),"[1]; 25° C./92% RH open, 40° C./75% RH open, 60° C. tight container, 1 week",chemically stable but physically unstable at 25° C./92% RH and 40° C./75% RH
same,Bulk (HPLC) chiral purity,[1]; [4],98.3%
same,Bulk (HPLC) purity,[1]; [4],99.4%/
same,Bulk (XRPD),[1]; [4],Form changed
same,Bulk (HPLC) chiral purity,[1]; [5],99.1%
same,Bulk (HPLC) purity,[1]; [5],99.0%/
same,Bulk (XRPD),[1]; [5],Form changed
same,Bulk (HPLC) chiral purity,[1]; [6],99.2%
same,Bulk (HPLC) purity,[1]; [6],99.5%/
same,Chiral purity (initial),[1]; before storage,99.5%
same,Initial purity by HPLC,[1]; before storage,99.6%
same,Chiral purity,"[2]; FaSSIF-V1, pH 6.5, 2 hours",purity: 98.3%)
same,Solubility,"[2]; FaSSIF-V1, pH 6.5, 2 hours",44.1 μg/mL(chiral
same,Chiral purity (solids),"[2]; FaSSIF-V1, pH 6.5, 24 hours",99.3%)
same,Solubility,"[2]; FaSSIF-V1, pH 6.5, 24 hours",0.4 µg/mL
same,pH of supernatant,"[2]; FaSSIF-V1, pH 6.5, 24 hours",6.15
same,Chiral purity,"[2]; FeSSIF-V1, pH 5.0, 2 hours",purity: 97.7%)
same,Solubility,"[2]; FeSSIF-V1, pH 5.0, 2 hours",239.1 μg/mL(chiral
same,Chiral purity (solids),"[2]; FeSSIF-V1, pH 5.0, 24 hours",85.2%)
same,Solubility,"[2]; FeSSIF-V1, pH 5.0, 24 hours",16.2 µg/mL
same,pH of supernatant,"[2]; FeSSIF-V1, pH 5.0, 24 hours",4.84
same,Solubility,"[2]; MeOH/DCM (1:2, v/v), 2 hours",>111000 µg/mL
same,Solubility,"[2]; MeOH/DCM (1:2, v/v), 24 hours",>111000 µg/mL
same,Solubility,"[2]; SGF, pH 2.0, 2 hours",3.2 µg/mL
same,Chiral purity (solids),"[2]; SGF, pH 2.0, 24 hours",99.2%)
same,Solubility,"[2]; SGF, pH 2.0, 24 hours",2.6 µg/mL
same,pH of supernatant,"[2]; SGF, pH 2.0, 24 hours",1.89
same,Chiral purity (solids),"[2]; Water, 24 hours",99.2%)
same,pH of supernatant,"[2]; Water, 24 hours",2.52
same,"solubility in MeOH/DCM (1:2, v/v)",[2],> 111 mg/mL
same,Chiral purity (solids),"[2]; pH 2, HCl, 24 hours",99.3%)
same,pH of supernatant,"[2]; pH 2, HCl, 24 hours",1.89
same,1st Desorp. (%),[3]; [7],0.01%
same,2nd Sorp. (%),[3]; [7],0.01%
same,1st Desorp. (%),[3]; [8],1.52%
same,2nd Sorp. (%),[3]; [8],0.98%
same,1st Desorp. (%),[3]; [9],2.78%
same,2nd Sorp. (%),[3]; [9],1.76%
same,1st Desorp. (%),[3]; [10],3.61%
same,2nd Sorp. (%),[3]; [10],2.64%
same,1st Desorp. (%),[3]; [11],4.52%
same,1st Sorp. (%),[3]; [11],1.62%
same,2nd Desorp. (%),[3]; [11],4.51%
same,2nd Sorp. (%),[3]; [11],3.57%
same,1st Desorp. (%),"[3]; DVS 25° C., 50% RH",5.78%
same,2nd Sorp. (%),"[3]; DVS 25° C., 50% RH",4.63%
same,1st Sorp. (%),[3]; [12],3.50%
same,2nd Desorp. (%),[3]; [12],5.71%
same,1st Desorp. (%),"[3]; DVS 25° C., 60% RH",7.60%
same,2nd Sorp. (%),"[3]; DVS 25° C., 60% RH",6.22%
same,1st Sorp. (%),[3]; [13],4.75%
same,2nd Desorp. (%),[3]; [13],7.44%
same,1st Desorp. (%),"[3]; DVS 25° C., 70% RH",11.14%
same,2nd Sorp. (%),"[3]; DVS 25° C., 70% RH",9.34%
same,1st Sorp. (%),[3]; [14],6.87%
same,2nd Desorp. (%),[3]; [14],10.54%
same,1st Desorp. (%),"[3]; DVS 25° C., 80% RH",16.84%
same,2nd Sorp. (%),"[3]; DVS 25° C., 80% RH",15.03%
same,1st Sorp. (%),[3]; [15],12.16%
same,2nd Desorp. (%),[3]; [15],17.11%
same,1st Desorp. (%),"[3]; DVS 25° C., 90% RH",31.04%
same,2nd Sorp. (%),"[3]; DVS 25° C., 90% RH",27.39%
same,1st Sorp. (%),[3]; [16],25.12%
same,2nd Desorp. (%),[3]; [16],32.94%
same,1st Desorp. (%),"[3]; DVS 25° C., 95% RH",42.35%
same,2nd Sorp. (%),"[3]; DVS 25° C., 95% RH",44.74%
same,1st Sorp. (%),[3]; [17],42.35%
same,2nd Desorp. (%),[3]; [17],44.74%
same,XRPD after DVS test,"[3]; DVS 25° C., cycle 40-0-95-0-40% RH, listed as I-4 Form A",Form changed
same,hygroscopicity,"[3]; DVS at 25° C., listed as I-4 Form A",very hygroscopic
same,water absorbed,"[3]; from 40% RH to 95% RH, 25° C., listed as I-4 Form A",about 40 % water by weight
same,form after the DVS test (XRPD),[3]; listed as I-4 Form A,Form changed
